# Where a name gives a salt, the structure may show the parent alone.
# Experiments:
# [1] = system: acceleration of the heart rate induced by isoprenaline (anti-β effect); experiment: Anti-β effect: reduction of isoprenaline-induced acceleration of the heart rate in anesthetized atropinized dog; format: in vivo; design: key to Anti-β effect: +: for a reduction <50%; ++: for a reduction ≥50%; +++: for an almost complete reduction
# Description: The aim of this test is to determine the capacity of the compounds of the invention to reduce the increase in blood pressure induced by epinephrine (anti-αeffect) and the acceleration of the heart rate induced by isoprenaline (anti-βeffect) in the dog previously anesthetized with pentobarbital and atropinized.
# (§1) First, are determined for each dog the dose of epinephrine (between 3 and 10 μg/kg) which causes a reproducible increase in arterial blood pressure of about 133.10^2 Pa and the dose of isoprenaline (1 to 2 μg/kg) which causes a reproducible increase in the heart rate of about 70 beats/minute. The doses of epinephrine and isoprenaline thus determined are injected alternatively every ten minutes and after the two consecutive reference responses have been obtained, a quantity of the test compound is administered by the intravenous route.
# The percentage reduction of the acceleration of the heart rate caused by the test compound compared with the reference tachycardia previously measured (about 70 beats) is recorded.
# In both cases, the results of the reduction in arterial pressure and heart rate are expressed as follows: […]
# [2] = system: increase in blood pressure induced by epinephrine (anti-α effect); experiment: Anti-α effect: reduction of epinephrine-induced increase in blood pressure in anesthetized atropinized dog; format: in vivo; design: key: +: for a reduction <50%; ++: for a reduction ≥50%; +++: for an almost complete reduction
# Description: as §1, with “The aim of this test is to determine the capacity of the compounds of the invention to reduce the increase in blood pressure induced by epinephrine (anti-αeffect) and the acceleration of the heart rate induced by isoprenaline (anti-βeffect) in the dog previously anesthetized with pentobarbital and atropinized. First,” for “First,”, “route. The percentage reduction of the hypertension caused by the test compound in comparison with the reference hypertension previously obtained (about 100 mm Hg) is recorded. In both cases, the results of the reduction in arterial pressure and heart rate are expressed as follows: […]” for “route.”
# [3] = system: contractile response to potassium-induced depolarization on isolated rat aorta; experiment: Calcium inhibitory properties: antagonism of contractile response to potassium-induced depolarization on isolated rat aorta; design: species or system rat (male Wistar); settings: percent of maximal contraction before incubation, 60 min
# Description: It is well established that the depolarization of a smooth muscle membrane by potassium makes the latter permeable to extracellular calcium and induces muscle contraction. Consequently, the measurement of inhibition of the contractile response to depolarization by potassium or the measurement of relaxation of the tonic contraction on potassium depolarization can provide an evaluation of the potency of a compound as an inhibitor of the membrane permeability to Ca^++ ions. The technique used is the following: The aorta is removed from male Wistar rats weighing about 300 g and cut into strips approximately 40 mm long and 3 mm wide. These fragments are placed in a 25 ml isolated organ bath containing modified Krebs-bicarbonate solution (112 mM NaCL; 5 mM KCl; 25 mM NaHCO3; 1 mM KH2 PO4; 1.2 mM MgSO4; 2.5 mM CaCl2; 11.5 mM glucose, made up to 1000 ml with distilled water) maintained at 37° C. and through which a stream of carbon dioxide is passed. The preparation is connected to a force microsensor and the contractile response is recorded after amplification on a recorder. A tension of 2g is applied to the preparation. This latter is maintained in the modified Krebs-bicarbonate solution for 60 minutes, and then contractions are induced by replacing the Krebsbi-carbonate solution by a Krebs-potassium solution (17 mM NaCl; 100 mM KCl; 25 mM NaHCO3; 1 mM KH2 PO4; 1.2 mM MgSO4; 2.5 mM CaCl2; 11.5 mM glucose; made up to 1000 ml with distilled water). When the contractile response of the preparation has become reproducible, a given amount of the compound of the invention is introduced into the bath. Sixty minutes later a new spasm is induced by potassium depolarization. The results obtained on the aorta under investigation are then expressed in percent of the maximal contractional effect before incubation with the test substance. As examples, the following results were obtained, the compounds of formula (1) being in the form of the free base, the hydrochloride, oxalate or fumarate.
compound,measurement,setting,value
"2-isopropyl 8-methyl 1-{4-[3-(6,7-dimethoxy 1,2,3,4-tetrahydro N-isoquinolin-2-yl)propoxy]benzenesulfonyl}indolizine hydrogen oxalate [Ex. 2]",Anti-β effect,"[1]; intravenous, 0,065 mg/kg",+++
same,Anti-α effect,"[2]; intravenous, 0,065 mg/kg",+++
"COc1ccc(CCN(C)CCCOc2ccc(S(=O)(=O)c3c(C(C)C)cn4ccccc34)cc2)cc1OC [C, reference compound]",Anti-β effect,"[1]; intravenous, 0,1 mg/kg",+++
same,Anti-α effect,"[2]; intravenous, 0,1 mg/kg",+++
same,% maximal contractional effect,"[3]; 10^-8 M, 0.01 µM","40,1%"
same,% maximal contractional effect,"[3]; 10^-9 M, 0.001 µM","81,7%"
"CCCCc1oc2ccc(Br)cc2c1S(=O)(=O)c1ccc(OCCCN(C)CCc2ccc(OC)c(OC)c2)cc1 [Ex. 8, 5-bromo 2-n-butyl 3-{4[3-(N-methyl N-3,4-dimethoxy-β-phenethylamino)propoxy]benzenesulfonyl}benzofuran hydrogen oxalate]",Anti-β effect,"[1]; intravenous, 1,5 mg/kg",+++
same,Anti-α effect,"[2]; intravenous, 1,5 mg/kg",+++
same,% maximal contractional effect,"[3]; 10^-6 M, 1 µM","61,5%"
same,% maximal contractional effect,"[3]; 10^-7 M, 0.1 µM","79,4%"
"COc1ccc(CCN(C)CCCOc2ccc(S(=O)(=O)c3c(C(C)C)c4ccccc4n3CCCN(C)CCc3ccc(OC)c(OC)c3)cc2)cc1OC [Ex. 10, 2-{4-[3-(N-methyl N-3,4-dimethoxy-β-phenethylamino)propoxy]benzenesulfonyl} 1-[3-(N-methyl N-3,4-dimethoxy-β-phenethylamino)propyl] 3-isopropyl indole dioxalate]",Anti-β effect,"[1]; intravenous, 4,9 mg/kg",+++
same,Anti-α effect,"[2]; intravenous, 4,9 mg/kg",+++
same,% maximal contractional effect,"[3]; 10^-7 M, 0.1 µM","78,9%"
same,% maximal contractional effect,"[3]; 10^-8 M, 0.01 µM","90,2%"
"COc1ccc(CCN(C)CCCOc2ccc(S(=O)(=O)c3c(C(C)C)n(C)c4ccc(Cl)cc34)cc2)cc1OC [Ex. 13, 3-{4-[3-(N-methyl N-3,4-dimethoxy-β-phenethylamino)propoxy]benzenesulfonyl} 5-chloro 2-isopropyl 1-methylindole]",Anti-α effect,"[2]; intravenous, 0,6 mg/kg",+++
same,% maximal contractional effect,"[3]; 10^-7 M, 0.1 µM","35,5%"
same,% maximal contractional effect,"[3]; 10^-8 M, 0.01 µM","79,2%"
"COc1ccc(CCN(C)CCCOc2ccc(S(=O)(=O)c3c(C(C)C)cn4cccc(C)c34)cc2)cc1OC [Ex. 15, 2-isopropyl 8-methyl 1-{4-[3-(N-methyl N-3,4-dimethoxy-β-phenethylamino)propoxy]benzenesulfonyl}indolizine hydrogen oxalate]",inhibition in vivo at 0.013 mg/kg,"[1]; Canis lupus familiaris, intravenous, 0,013 mg/kg",< 50%
same,Anti-α effect,"[2]; intravenous, 0,013 mg/kg",++ (for a reduction ≥50%)
same,% maximal contractional effect,"[3]; 10^-8 M, 0.01 µM","11,1%"
same,% maximal contractional effect,"[3]; 10^-9 M, 0.001 µM","41,0%"
same,% maximal contractional effect,"[3]; 10^-10 M, 0.0001 µM","85,2%"
"CCCCN(CCCC)CCCOc1ccc(S(=O)(=O)c2c(C(C)C)n(C)c3ccc(Cl)cc23)cc1.O=C(O)C(=O)O [Ex. 44, 1-methyl 2-isopropyl 3-{4-[3-(di-n-butylamino)propoxy]benzenesulfonyl} 5-chloro indole hydrogen oxalate]",Anti-α effect,"[2]; intravenous, 1,2 mg/kg",++ (for a reduction ≥50%)
same,% maximal contractional effect,"[3]; 10^-7 M, 0.1 µM","69,6%"
same,% maximal contractional effect,"[3]; 10^-8 M, 0.01 µM","85,7%"
"CC(C)c1c(S(=O)(=O)c2ccc(OCCCN(C)C3CCCc4ccccc43)cc2)c2cc(Cl)ccc2n1C.O=C(O)C(=O)O (centres unmarked) [Ex. 47, 1-methyl 2-isopropyl 3-{4-[3-(N-methyl N-1,2,3,4-tetrahydronaphth-1-ylamino)propoxy]benzenesulfonyl} 5-chloro indole hydrogen oxalate]",Anti-α effect,"[2]; intravenous, 6,6 mg/kg",++ (for a reduction ≥50%)
same,% maximal contractional effect,"[3]; 10^-7 M, 0.1 µM","75,3%"
same,% maximal contractional effect,"[3]; 10^-8 M, 0.01 µM","88,3%"
same,% maximal contractional effect,"[3]; 10^-9 M, 0.001 µM","91,4%"
"CCCCN(CCCC)CCCOc1ccc(S(=O)(=O)c2c(C)nn3cccc(C)c23)cc1.O=C(O)C(=O)O [Ex. 49, 3-{4-[3-(di-n-butylamino)propoxy]benzenesulfonyl} 2,4-dimethyl pyrazolo[1,5-a]pyridine hydrogen oxalate]",Anti-α effect,"[2]; intravenous, 0,28 mg/kg",+ (for a reduction <50%)
same,% maximal contractional effect,"[3]; 10^-8 M, 0.01 µM","62,9%"
same,% maximal contractional effect,"[3]; 10^-9 M, 0.001 µM","75,7%"
"COc1ccc(CCN(C)CCCOc2ccc(S(=O)(=O)c3c(C(C)C)nn4c(C)cccc34)cc2)cc1OC [Ex. 50, 3-{4-[3-(N-methyl N-3,4-dimethoxy-β-phenethylamino)propoxy]benzenesulfonyl} 2-isopropyl 7-methyl pyrazolo[1,5-a]pyridine hydrogen oxalate]",Anti-β effect,"[1]; intravenous, 0,13 mg/kg",+++
same,Anti-α effect,"[2]; intravenous, 0,13 mg/kg",+++
same,% maximal contractional effect,"[3]; 10^-8 M, 0.01 µM","29,1%"
same,% maximal contractional effect,"[3]; 10^-9 M, 0.001 µM","65,6%"
same,% maximal contractional effect,"[3]; 10^-10 M, 0.0001 µM","86,3%"
"COc1ccc(CCN(C)CCCOc2ccc(S(=O)(=O)c3c(C(C)C)c4cccc(C)c4n3C)cc2)cc1OC [Ex. 55, 2-{4-[3-(N-methyl N-3,4-dimethoxy-β-phenethylamino)propoxy]benzenesulfonyl} 3-isopropyl 1,7-dimethyl indole hydrogen oxalate]",Anti-β effect,"[1]; intravenous, 0,07 mg/kg",+++
same,Anti-α effect,"[2]; intravenous, 0,07 mg/kg",+++
same,% maximal contractional effect,"[3]; 10^-7 M, 0.1 µM","45,8%"
same,% maximal contractional effect,"[3]; 10^-8 M, 0.01 µM","56,4%"
same,% maximal contractional effect,"[3]; 10^-9 M, 0.001 µM",79%
same,% maximal contractional effect,"[3]; 10^-10 M, 0.0001 µM","85,7%"
"COc1ccc(CCN(C)CCCOc2ccc([S+]([O-])c3c(C(C)C)c4cc(Cl)ccc4n3C)cc2)cc1OC (stereo not drawn) [Ex. 56, (5-chloro 3-isopropyl 1-methylindo-2yl)4-[3-(N-methyl N-3,4-dimethoxy-β-phenethylamino)propoxy]phenyl sulfoxide hydrogen oxalate]",Anti-α effect,"[2]; intravenous, 0,67 mg/kg",+++
same,% maximal contractional effect,"[3]; 10^-7 M, 0.1 µM","19,8%"
same,% maximal contractional effect,"[3]; 10^-8 M, 0.01 µM","61,3%"
same,% maximal contractional effect,"[3]; 10^-9 M, 0.001 µM","78,6%"
"CCCCN(CCCC)CCCOc1ccc(S(=O)(=O)c2c(C(C)C)c3cc(OC)ccc3n2C)cc1.O=C(O)C(=O)O [Ex. 64, 2-{4-[3-(di-n-butylamino)propoxy]benzenesulfonyl} 3-isopropyl 5-methoxy 1-methyl indole hydrogen oxalate]",Anti-α effect,"[2]; intravenous, 0,5 mg/kg",+++
same,% maximal contractional effect,"[3]; 10^-7 M, 0.1 µM","69,3%"
same,% maximal contractional effect,"[3]; 10^-8 M, 0.01 µM","72,6%"
same,% maximal contractional effect,"[3]; 10^-9 M, 0.001 µM","93,9%"
"CCCCN(CCCC)CCCOc1ccc(S(=O)(=O)c2c(C(C)C)cn3cccc(C)c23)cc1 [Ex. 75, 1-{4-[3-(di-n-butylamino)propoxy]benzenesulfonyl} 2-isopropyl 8-methyl indolizine]",Anti-α effect,"[2]; intravenous, 0,02 mg/kg",++ (for a reduction ≥50%)
same,% maximal contractional effect,"[3]; 10^-8 M, 0.01 µM","9,7%"
same,% maximal contractional effect,"[3]; 10^-9 M, 0.001 µM","51,4%"
same,% maximal contractional effect,"[3]; 10^-10 M, 0.0001 µM","83,8%"
"COc1ccc(CCN(C)CCCOc2ccc(S(=O)(=O)c3c(C(C)C)cn4c(C)cccc34)cc2)cc1OC [Ex. 79, 2-Isopropyl 5-methyl 1-{4-[3-(N-methyl N-3,4-dimethoxy-β-phenethylamino)propoxy]benzenesulfonyl}indolizine]",Anti-α effect,"[2]; intravenous, 0,07 mg/kg",+++
same,% maximal contractional effect,"[3]; 10^-8 M, 0.01 µM","29,8%"
same,% maximal contractional effect,"[3]; 10^-9 M, 0.001 µM","77,9%"
same,% maximal contractional effect,"[3]; 10^-10 M, 0.0001 µM","87,3%"

# — US5444056A, “Aminoalkoxyphenyl derivatives, process for their preparation and compositions containing them” (Sanofi, priority 1989, dated 1995)
